Laboratory results as given in patent US20140045823A1 (Neurocrine Biosciences, Inc., priority 2012, published 2014).

Molecular target: T1, human GPR119 (Homo sapiens, UniProt Q8TDV5)
T1 construct: expression vector for human GPR119 cDNA (Acc. No. NP_848566); expressed in transfected cells; Min-6/hGPR119
T1 sequence (Q8TDV5 1-335): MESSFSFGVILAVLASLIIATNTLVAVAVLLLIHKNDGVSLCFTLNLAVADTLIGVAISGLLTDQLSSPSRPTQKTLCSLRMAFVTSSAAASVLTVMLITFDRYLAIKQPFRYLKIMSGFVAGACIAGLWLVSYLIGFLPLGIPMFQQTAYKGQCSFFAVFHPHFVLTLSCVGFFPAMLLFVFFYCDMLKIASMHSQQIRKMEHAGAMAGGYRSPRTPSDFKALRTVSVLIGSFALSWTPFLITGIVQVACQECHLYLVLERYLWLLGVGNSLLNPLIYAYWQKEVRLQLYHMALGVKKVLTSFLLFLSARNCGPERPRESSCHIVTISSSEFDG
Assay: AlphaScreen cAMP assay in MIN6 cells stably transfected with human GPR119
Assay type: cell-based
Settings: Min-6/hGPR119 cells, 45 min at room temperature
How it was run: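 cAMP accumulation quantified by AlphaScreen after 45 min compound stimulation at about 20 °C. Stimulation buffer: pH 7.4 HEPES saline with 0.5 mM IBMX, 0.1% BSA, 1% DMSO final. Cells: MIN6 stably transfected with human GPR119, 10000/well, cultured 24 h beforehand.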

Row | EC50 [µM] | SMILES
1 | 0.317 | CN(Cc1cccnc1)C(=O)Cc1ccc(-c2ncc(C(=O)N(C3CC3)C3CCN(C(=O)OC(C)(C)C)CC3)cn2)cc1 [Example 236, 4-[Cyclopropyl-(2-{4-[(methyl-pyridin-3-ylmethyl-carbamoyl)-methyl]-phenyl}-pyrimdine-5-carbonyl)-amino]-piperidine-1-carboxylic acid tert-butyl ester]
2 | 0.408 | CC(C)(C)OC(=O)N1CCC(N(C(=O)c2cnc(-c3ccc(C(=O)NCC4CCOC4)cc3)nc2)C2CC2)CC1 (centres unmarked) [Example 237, 4-[Cyclopropyl-(2-{4-[(tetrahydro-furan-3-ylmethyl)-carbamoyl]-phenyl}-pyrimidine-5-carbonyl)-amino]-piperidine-1-carboxylic acid tert-butyl ester]
3 | 0.111 | COc1ccc(NC(=O)c2ccc(-c3ncc(C(=O)N(C4CC4)C4CCN(C(=O)OC(C)(C)C)CC4)cn3)cc2)c(OC)c1 [Example 238, 4-(Cyclopropyl-{2-[4-(2,4-dimethoxy-phenylcarbamoyl)-phenyl]-pyrimidine-5-carbonyl}-amino)-piperidine-1-carboxylic acid tert-butyl ester]
4 | 0.424 | CC(C)(C)OC(=O)N1CCC(N(C(=O)c2cnc(-c3ccc(C(=O)N4CCC(C#N)C4)cc3)nc2)C2CC2)CC1 (centres unmarked) [Example 239, 4-({2-[4-(3-Cyano-pyrrolidine-1-carbonyl)-phenyl]-pyrimidine-5-carbonyl}-cyclopropyl-amino)-piperidine-1-carboxylic acid tert-butyl ester]
5 | 0.171 | COCc1cccc(NC(=O)c2ccc(-c3ncc(C(=O)N(C4CC4)C4CCN(C(=O)OC(C)(C)C)CC4)cn3)cc2)c1 [Example 240, 4-(Cyclopropyl-{2-[4-(3-methoxymethyl-phenylcarbamoyl)-phenyl]-pyrimidine-5-carbonyl}-amino)-piperidine-1-carboxylic acid tert-butyl ester]
6 | 0.245 | CC(C)(C)OC(=O)N1CCC(N(C(=O)c2cnc(-c3ccc(C(=O)NCc4ccncc4)cc3)nc2)C2CC2)CC1 [Example 241, 4-[Cyclopropyl-(2-{4-[(pyridin-4-ylmethyl)-carbamoyl]-phenyl}-pyrimidine-5-carbonyl)-amino]-piperidine-1-carboxylic acid tert-butyl ester]
7 | 0.593 | CC(C)(C)OC(=O)N1CCC(N(C(=O)c2cnc(-c3ccc(C(=O)N4CCCC4CO)cc3)nc2)C2CC2)CC1 (centres unmarked) [Example 242, 4-(Cyclopropyl-{2-[4-(2-hydroxymethyl-pyrrolidine-1-carbonyl)-phenyl]-pyrimidine-5-carbonyl}-amino)-piperidine-1-carboxylic acid tert-butyl ester]
8 | 0.309 | COCCNC(=O)c1ccc(-c2ncc(C(=O)N(C3CC3)C3CCN(C(=O)OC(C)(C)C)CC3)cn2)cc1 [Example 243, 4-(Cyclopropyl-{2-[4-(2-methoxy-ethylcarbamoyl)-phenyl]-pyrimidine-5-carbonyl}-amino)-piperidine-1-carboxylic acid tert-butyl ester]
9 | 0.237 | CC(C)(C)OC(=O)N1CCC(N(C(=O)c2cnc(-c3ccc(C(=O)NCC4CCCO4)cc3)nc2)C2CC2)CC1 (centres unmarked) [Example 244, 4-[Cyclopropyl-(2-{4-[(tetrahydro-furan-2-ylmethyl)-carbamoyl]-phenyl)-pyrimidine-5-carbonyl)-amino]-piperidine-1-carboxylic acid tert-buyl ester]
10 | 0.322 | CC(C)(C)OC(=O)N1CCC(N(C(=O)c2cnc(-c3ccc(C(=O)N4CCC[C@@H]4C#N)cc3)nc2)C2CC2)CC1 [Example 245, 4-({2-[4-(2-Cyano-pyrrolidine-1-carbonyl)-phenyl]-pyrimidine-5-carbonyl}-cyclopropyl-amino)-piperidine-1-carboxylic acid tert-butyl ester]
11 | 0.169 | Cc1cnc(CNC(=O)c2ccc(-c3ncc(C(=O)N(C4CC4)C4CCN(C(=O)OC(C)(C)C)CC4)cn3)cc2)s1 [Example 246, 4-[Cyclopropyl-(2-{4-[(5-methyl-thiazol-2-ylmethyl)-carbamoyl]-phenyl}-pyrimidine-5-carbonyl)-amino]-piperidine-1-carboxylic acid tert-butyl ester]
12 | 0.051 | CC(C)(C)OC(=O)N1CCC(N(C(=O)c2cnc(-n3ccnc3)nc2)C2CC2)CC1 [Example 247]
13 | 0.061 | C[C@H](OC(=O)N1CCC(N(C(=O)c2cnc(-c3cnco3)cn2)C2CC2)CC1)C(F)(F)F [Example 258, 4-[Cyclopropyl-(5-oxazol-5-yl-pyrazine-2-carbonyl)-amino]-piperidine-1-carboxylic acid (S)-2,2,2-trifluoro-1-methyl-ethyl ester]

Molecular target: T2, mutant form of the human GPR119 receptor (Homo sapiens, UniProt Q8TDV5, S329A/T327A)
T2 construct: expressed in transfected cells
T2 sequence (Q8TDV5 with tags, fused parts or gaps T327A/S329A): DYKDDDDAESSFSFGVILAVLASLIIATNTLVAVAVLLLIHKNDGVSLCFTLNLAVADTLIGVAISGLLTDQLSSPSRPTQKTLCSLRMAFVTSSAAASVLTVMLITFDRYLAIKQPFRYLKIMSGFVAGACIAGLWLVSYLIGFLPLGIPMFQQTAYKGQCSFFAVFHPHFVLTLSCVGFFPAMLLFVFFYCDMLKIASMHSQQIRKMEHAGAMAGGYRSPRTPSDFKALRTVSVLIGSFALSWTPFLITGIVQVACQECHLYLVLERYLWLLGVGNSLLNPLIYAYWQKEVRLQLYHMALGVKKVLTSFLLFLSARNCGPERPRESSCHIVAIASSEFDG
Assay: LANCE cAMP-384 assay in HEK293 cells stably expressing a mutant form of the human GPR119 receptor
Assay type: cell-based
Settings: mutant human GPR119, LANCE cAMP-384 Kit, 20 min at 37° C., read-out: EC50 (cAMP accumulation)
Method: Quantitative detection of cAMP accumulation from cells expressing human GPR119 receptor is achieved using Perkin Elmer's LANCE cAMP-384 Kit (Cat#AD0264) according to the manufacturer's protocol. Briefly, HEK293 cells stably expressing a mutant form of the human GPR119 receptor as assay tool (Methionine 1 replaced with the amino acid sequence […], and T327 & S329 changed to alanines; SEQ ID No. 1) are grown to 50-70% confluency in cell culture media (DMEM, 10% heat inactivated Fetal Bovine Serum, 50 I.U./mL penicillin, 50 μg/mL streptomycin, 10 mM HEPES, 20 μg/mL G418 Sulfate). On the day of the assay, GPR119 stable HEK293 cells are lifted from the tissue culture plate and 1000 cells/well are incubated along with various concentrations of test compounds for 20 min at 37° C. Detection Buffer (50 mM HEPES, 10 mM calcium chloride, 0.35% Triton X-100, 1 mg/mL BSA) containing cAMP-specific antibody is then added to all wells and allowed to equilibrate in the dark for 10 minutes at room temperature. Upon equilibration, Detection Buffer containing europium-labeled cAMP tracer complex is added to all wells and allowed to react for 1 hour at room temperature. After 1 hour, bound europium-labeled cAMP tracer is measured using a Perkin Elmer Envision plate reader. The quantity of cAMP generated in each well is derived from a standard curve. EC50 is determined using nonlinear regression analysis of the cAMP values over a range of agonist concentration (12 points spanning the range from 30 μM to […]).

Row | SMILES | EC50 [µM]
14 | Cc1nnnn1-c1ccc(C(=O)N(C2CC2)C2CCN(C(=O)OC(C)C)CC2F)cn1 (single isomer, unassigned) [Example 249] | 0.146
15 | CC(C)OC(=O)N1CC[C@@H](N(C(=O)c2cnc(-n3cncn3)cn2)C2CC2)[C@@H](F)C1 [Example 248] | 0.054
16 | Cc1nccn1-c1ncc(C(=O)N(C2CC2)[C@@H]2CCN(C(=O)OC(C)C)C[C@@H]2F)cn1 [Example 250] | 0.045
17 | Cc1nccn1-c1ncc(C(=O)N(C2CC2)[C@H]2CCN(C(=O)OC(C)C)C[C@H]2F)cn1 [Example 251] | 0.587
18 | Cc1ncnn1-c1ccc(C(=O)N(C2CC2)[C@@H]2CCN(C(=O)OC(C)C)C[C@@H]2F)cn1 [Example 252] | 0.193
19 | CC(C)OC(=O)N1CCC(N(C(=O)c2cnc(-n3cncn3)cn2)C2CC2)CC1 [Example 253] | 0.435
20 | Cc1nccn1-c1cnc(C(=O)N(C2CC2)C2CCN(C(=O)OC(C)C)CC2)cn1 [Example 254] | 0.518
21 | Cc1ncn(-c2cnc(C(=O)N(C3CC3)C3CCN(C(=O)OC(C)C)CC3)cn2)n1 [Example 255] | 1.55
22 | Cc1nccn1-c1ncc(C(=O)N(C2CC2)C2CCN(C(=O)OC(C)C)CC2)cn1 [Example 256] | 0.265
23 | CC(C)OC(=O)N1CC[C@H](N(C(=O)c2cnc(-n3cncn3)cn2)C2CC2)[C@H](F)C1 [Example 257] | 0.801
